According to patent publication US4202988A, “Prostenoic acids and esters” (American Cyanamid Company, priority 1977, dated 1980):

What was measured:
[1] = tested on: adenosine diphosphate induced platelet aggregation (human protein rich plasma); experiment: Inhibition of Platelet Aggregation - In Vitro, adenosine diphosphate induced; assay type: cell-based; parameters: key: (-): Inhibition; (+): No inhibition
Text: (§1) It is well known that platelet aggregation inhibitors may be useful as anti-thrombotic drugs. Inhibition of platelet aggregation can be conveniently measured in vitro by monitoring changes in optical density and/or light transmission in platelet rich plasma upon addition of suitable aggregating agents such as adenosine diphosphate, epinephrine, thrombin or collagen. Alternatively, platelet aggregation can be measured in vitro using platelet rich plasma obtained at various time intervals from animals given inhibitors by an oral or parenteral route.
(§2) Human […] is incubated with modified Tyrode's solution in a proportion of 40-50% human […]. The test compounds are added at varying concentrations and after 5 minutes incubation, an aggregating agent such as adenosine diphosphate or collagen is added. The change in optical density (light transmission) is monitored by eye and inhibition is recorded as a (-) or lack of inhibition is recorded as a (+). Test compounds are considered active if they inhibit adenosine diphosphate or collagen induced aggregation at a concentration of 25 mcg/ml or less within 5-10 minutes.

[2] = tested on: bronchospasms elicited by acetylcholine; experiment: Bronchodilator activity against acetylcholine bronchospasm (Konzett procedure); assay type: in vivo, guinea pigs; details: Cavia porcellus; guinea pig, three logarithmic cumulative intravenous doses
Protocol: (§3) Bronchodilator activity is determined in guinea pigs against bronchospasms elicited by intravenous injections of 5-hydroxytryptamine, histamine or acetylcholine by the Konzett procedure. [See J. Lulling, P. Lievens, F. El Sayed and J. Prignot, Arzeneimittel-Forschung, 18, 995 (1968).] In Table B bronchodilator activity for representative compounds of this invention against one or more of the three spasmogenic agents is expressed as an ED50 determined from the results obtained with three logarithmic cumulative intravenous doses.

[3] = tested on: bronchospasms elicited by 5-hydroxytryptamine; experiment: Bronchodilator activity against 5-hydroxytryptamine bronchospasm (Konzett procedure); assay type: in vivo, guinea pigs; details: Cavia porcellus; guinea pig, three logarithmic cumulative intravenous doses
Protocol: as §3

[4] = tested on: collagen induced platelet aggregation (human protein rich plasma); experiment: Inhibition of Platelet Aggregation - In Vitro, collagen induced; assay type: cell-based; parameters: key: (-): Inhibition; (+): No inhibition
Text: as §1, §2

[5] = tested on: bronchospasms elicited by histamine; experiment: Bronchodilator activity against histamine bronchospasm (Konzett procedure); assay type: in vivo, guinea pigs; details: Cavia porcellus; guinea pig, three logarithmic cumulative intravenous doses
Protocol: as §3

Row | SMILES | Inhibition of platelet aggregation, adenosine diphosphate ([1]; drug concentration 25 μg/ml) | Inhibition of platelet aggregation, adenosine diphosphate ([1]; drug concentration 250 μg/ml) | ED50 [2] [µg/kg] | ED50 [3] [µg/kg] | Inhibition of platelet aggregation, collagen ([4]; drug concentration 25 μg/ml) | Inhibition of platelet aggregation, collagen ([4]; drug concentration 250 μg/ml) | ED50 [5] [µg/kg] | Inhibition of platelet aggregation, adenosine diphosphate ([1]; drug concentration 2.5 μg/ml)
1 | O=C(O)CCC/C=C\C[C@@H]1C(=O)C=C[C@H]1/C=C/C1(O)CCCCC1 (relative stereo) [nat-(and ent)-15-hydroxy-9-oxo-15,16-tetramethylene-17,18,19,20-tetranor-5-cis-10,13-trans-prostatrienoic Acid] | (+) | (-) | > 3.2 | > 3.2 | (+) | (-) | 0.632 | –
2 | N#CC1CC(=O)C(CC=CCCCC(=O)O)C1C=CC1(O)CCCCC1 (stereo not drawn) [nat(and ent)-11α/βCyano-15-hydroxy-9-ozxo-15, 16-tetramethylene-17,18,19,20-tetranor-5-cis-13-trans-prostadienoic Acid] | (-) | (-) | 2.74 | 1.81 | (-) | (-) | 0.367 | (-)
